Experimental data from US10562912B2 (C&C Research Laboratories, priority 2013, dated 2020).

Assays:
Assay type in all cases: cell-based
[1] = target: T1, STAT3 (Homo sapiens, UniProt P40763); test: STAT3 reporter gene assay (luciferase), LNCaP stable cell line (pSTAT3-TA-luc), IL-6 stimulation
T1 construct: plasmid pSTAT3-TA-luc), which contains a stably operating STAT3 promoter; endogenous in cells
Method in brief: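 LNCaP cells stably carrying pSTAT3-TA-luc, in RPMI1640 with 3% DCC-FBS, were treated with compound and then stimulated with 10 ng/mL IL-6 for 24–48 h at 37 °C. Luciferase activity was measured in lysates. A parallel plate measured viability by CellTiter-Glo, with stimulated 0.1% DMSO wells as the positive control.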

[2] = test system: LNCaP; test: Cell growth inhibition assay, prostate cancer cell line LNCaP (medium with 10 ng/mL IL-6); conditions: Homo sapiens, medium supplemented with 10 ng/mL of IL-6, 10,000 cells/well
[3] = test system: DU-145; test: Cell growth inhibition assay, prostate cancer cell line DU-145; conditions: Homo sapiens, DU-145 prostate cancer cell line
Method in brief: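 Viability by CellTiter-Glo luminescence after 72–96 h of compound dosing at 37° C. under 5% CO2; DU-145 and HCT116 seeded at 3,000 cells/well, SW626 at 5,000 cells/well.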

[4] = test system: HEL92.1.7; test: Cell growth inhibition assay, blood cancer cell line HEL92.1.7; conditions: Homo sapiens, HEL 92.1.7, HEL92.1.7 blood cancer cell line
Method in brief: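 Cells were seeded at 3,000/well (HCT116, DU-145) or 5,000/well (SW626 and the others) and exposed to serial compound dilutions for 72 to 96 h at 37 °C under 5% CO2. Viability was read as CellTiter-Glo luminescence against 0.1% DMSO and cell-free wells.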

T1 sequence (P40763 whole entry): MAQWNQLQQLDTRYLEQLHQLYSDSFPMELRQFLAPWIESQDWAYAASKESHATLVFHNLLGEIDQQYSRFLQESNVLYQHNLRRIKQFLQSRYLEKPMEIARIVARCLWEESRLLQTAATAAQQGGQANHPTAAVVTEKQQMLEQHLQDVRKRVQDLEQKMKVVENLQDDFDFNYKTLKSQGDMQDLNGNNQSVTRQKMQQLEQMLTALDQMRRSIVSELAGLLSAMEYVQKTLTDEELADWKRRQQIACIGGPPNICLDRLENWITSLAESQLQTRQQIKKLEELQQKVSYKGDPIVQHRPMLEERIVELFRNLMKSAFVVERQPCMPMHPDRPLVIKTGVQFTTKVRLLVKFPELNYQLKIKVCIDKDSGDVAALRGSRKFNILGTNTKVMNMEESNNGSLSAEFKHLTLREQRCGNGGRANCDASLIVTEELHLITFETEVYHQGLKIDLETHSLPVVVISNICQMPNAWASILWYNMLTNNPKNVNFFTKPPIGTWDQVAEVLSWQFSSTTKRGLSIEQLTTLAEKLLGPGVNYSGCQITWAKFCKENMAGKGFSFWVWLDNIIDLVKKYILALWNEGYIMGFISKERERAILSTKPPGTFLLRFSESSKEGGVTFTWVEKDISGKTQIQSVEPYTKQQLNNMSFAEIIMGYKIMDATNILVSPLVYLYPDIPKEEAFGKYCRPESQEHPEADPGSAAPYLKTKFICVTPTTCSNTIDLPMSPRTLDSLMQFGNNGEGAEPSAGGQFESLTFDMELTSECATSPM

SMILES | IC50 [1] [µM] | IC50 [2] [µM] | IC50 [3] [µM] | IC50 [4] [µM]
CC(C)Oc1cc(OC(F)(F)F)cc(C(C)(C)c2cc(Cl)cc(N(CCN3CCOCC3)C(=O)c3cc4cc(N(CCN5CCOCC5)S(C)(=O)=O)c(F)cc4s3)c2)c1 [Example 218, N-(3-chloro-5-(2-(3-isopropoxy-5-(trifluoromethoxy)phenyl)propan-2-yl)phenyl)-6-fluoro-N-(2-morpholinoethyl)-5-(N-(2-morpholinoethyl)methylsulfonamido)benzo[b]thiophene-2-carboxamide] | > 10 | 7.7 | > 1.1 | > 1.1
CC(C)Oc1cc(OC(F)(F)F)cc(C(C)(C)c2cc(Cl)cc(NC(=O)c3cc4cc(NS(=O)(=O)CCN(C)O)ccc4s3)c2)c1 [Example 210, N-(3-chloro-5-(2-(3-isopropoxy-5-(trifluoromethoxy)phenyl)propan-2-yl)phenyl)-5-((2-(hydroxy(methyl)amino)ethyl)sulfonamido)benzo[b]thiophene-2-carboxamide] | 0.14 | 0.28 | 0.073 | 0.57
COc1ccc(C(C)(C)c2cc(Cl)cc(NC(=O)c3cc4cc(NS(C)(=O)=O)ccc4s3)c2)cc1 [Example 155, N-(3-chloro-5-(2-(4-methoxyphenyl)propan-2-yl)phenyl)-5-(methylsulfonamido)benzo[b]thiophene-2-carboxamide] | 0.078 | 0.034 | 0.061 | 0.13
CC(C)Oc1cc(OC(F)(F)F)cc(C(C)(C)c2cc(Cl)cc(NC(=O)c3cc4cc(NS(=O)(=O)c5ccn(C)n5)ccc4s3)c2)c1 [Example 200, N-(3-chloro-5-(2-(3-isopropoxy-5-(trifluoromethoxy)phenyl)propan-2-yl)phenyl)-5-((1-methyl-1H-pyrazole)-3-sulfonamido)benzo[b]thiophene-2-carboxamide] | 0.069 | 0.28 | 0.19 | 0.3
COc1cc(OC(F)(F)F)cc(C(C)(C)c2cc(Cl)cc(NC(=O)c3cc4cc(NS(C)(=O)=O)ccc4s3)n2)c1 [Example 150, N-(4-chloro-6-(2-(3-methoxy-5-(trifluoromethoxy)phenyl)propan-2-yl)pyridin-2-yl)-5-(methylsulfonamido)benzo[b]thiophene-2-carboxamide] | 0.014 | 0.016 | 0.008 | 0.031
O=C(Nc1cc(Cl)cc(-c2ccc(F)cc2F)c1)c1cc2cc(NS(=O)(=O)C3CCOC3)ccc2s1 (stereo not drawn) [Example 327, N-(5-chloro-2′,4′-difluoro-[1,1′-biphenyl]-3-yl)-5-((tetrahydrofuran)-3-sulfonamido)benzo[b]thiophene-2-carboxamide] | 0.041 | 0.088 | 0.034 | 0.082
CS(=O)(=O)Nc1ccc2sc(C(=O)Nc3cc(Cl)cc(-c4ccc(F)cc4F)c3)cc2c1 [Example 323, N-(5-chloro-2′,4′-difluoro-[1,1′-biphenyl]-3-yl)-5-(methylsulfonamido)benzo[b]thiophene-2-carboxamide] | 0.11 | 0.063 | 0.035 | 0.097
CC(C)(c1cc(F)cc(NC(=O)c2cc3cc(NS(C)(=O)=O)ccc3s2)c1)c1cc(CN2CCOCC2)cc(OC(F)(F)C(F)F)c1 [Example 140, N-(3-fluoro-5-(2-(3-(morpholinomethyl)-5-(1,1,2,2-tetrafluoroethoxy)phenyl)propan-2-yl)phenyl)-5-(methylsulfonamido)benzo[b]thiophene-2-carboxamide] | 0.09 | 0.13 | 0.053 | 0.3
CC(C)Oc1cc(OC(F)(F)F)cc(C(C)(C)c2cc(Cl)cc(NC(=O)c3cc4cc(N(CCN(C)C)S(C)(=O)=O)c(F)cc4s3)c2)c1 [Example 219, N-(3-chloro-5-(2-(3-isopropoxy-5-(trifluoromethoxy)phenyl)propan-2-yl)phenyl)-5-(N-(2-(dimethylamino)ethyl)methylsulfonamido)-6-fluorobenzo[b]thiophene-2-carboxamide] | 1.19 | 0.19 | 0.18 | 0.9
CS(=O)(=O)Nc1ccc2sc(C(=O)Nc3cc(Br)cc(S(=O)(=O)N4CCC(F)(F)CC4)c3)cc2c1 [Example 420, N-(3-bromo-5-((4,4-difluoropiperidin-1-yl)sulfonyl)phenyl)-5-(methylsulfonamido)benzo[b]thiophene-2-carboxamide] | 0.82 | 1.7 | 0.95 | 2.4
CC(C)Oc1cc(N2CCCC2)cc(C(C)(C)c2cc(Cl)cc(NC(=O)c3cc4cc(NS(C)(=O)=O)ccc4s3)c2)c1 [Example 146, N-(3-chloro-5-(2-(3-isopropoxy-5-(pyrrolidin-1-yl)phenyl)propan-2-yl)phenyl)-5-(methylsulfonamido)benzo[b]thiophene-2-carboxamide] | 0.073 | 0.022 | 0.019 | 0.32
CC(C)Oc1cc(OC(F)(F)F)cc(C(C)(C)c2cc(Cl)cc(NC(=O)c3cc4cc(NS(=O)(=O)C5CCOC5)ccc4s3)c2)c1 (stereo not drawn) [Example 204, N-(3-chloro-5-(2-(3-isopropoxy-5-(trifluoromethoxy)phenyl)propan-2-yl)phenyl)-5-((tetrahydrofuran)-3-sulfonamido)benzo[b]thiophene-2-carboxamide] | 0.051 | 0.095 | 0.017 | 0.05
CC(C)Oc1cc(Cl)cc(C(C)(C)c2cc(Cl)cc(NC(=O)c3cc4cc(NS(C)(=O)=O)ccc4s3)c2)c1 [Example 92, N-(3-chloro-5-(2-(3-chloro-5-isopropoxyphenyl)propan-2-yl)phenyl)-5-(methylsulfonamido)benzo[b]thiophene-2-carboxamide] | 0.067 | 0.071 | 0.017 | 0.1
CC(C)Oc1cc(N2CCOCC2)cc(C(C)(C)c2cc(Cl)cc(NC(=O)c3cc4cc(NS(C)(=O)=O)ccc4s3)c2)c1 [Example 145, N-(3-chloro-5-(2-(3-isopropoxy-5-morpholinophenyl)propan-2-yl)phenyl)-5-(methylsulfonamido)benzo[b]thiophene-2-carboxamide] | 0.067 | 0.04 | 0.06 | 0.16
CC(=O)N1CCC(S(=O)(=O)Nc2ccc3sc(C(=O)Nc4cc(Cl)cc(C(C)(C)c5cc(OC(C)C)cc(OC(F)(F)F)c5)c4)cc3c2)CC1 [Example 206, 5-((1-acetylpiperidine)-4-sulfonamido)-N-(3-chloro-5-(2-(3-isopropoxy-5-(trifluoromethoxy)phenyl)propan-2-yl)phenyl)benzo[b]thiophene-2-carboxamide] | 0.19 | 0.19 | 0.051 | 0.35
CC(C)Oc1cc(OC(F)(F)F)cc(C(C)(C)c2cc(Cl)cc(NC(=O)c3cc4c(F)c(NS(C)(=O)=O)ccc4s3)c2)c1 [Example 93, N-(3-chloro-5-(2-(3-isopropoxy-5-(trifluoromethoxy)phenyl)propan-2-yl)phenyl)-4-fluoro-5-(methylsulfonamido)benzo[b]thiophene-2-carboxamide] | 0.091 | 0.055 | 0.021 | 0.12
CC(C)(c1cc(Cl)cc(NC(=O)c2cc3cc(NS(C)(=O)=O)ccc3s2)c1)n1cnccc1=O [Example 189] | > 10 | > 10 | > 1.1 | > 1.1
CC(C)(c1cc(Cl)cc(NC(=O)c2cc3cc(NS(C)(=O)=O)ccc3s2)c1)c1cc(OCC(F)F)cc(OC(F)(F)F)c1 [Example 83, N-(3-chloro-5-(2-(3-(2,2-difluoroethoxy)-5-(trifluoromethoxy)phenyl)propan-2-yl)phenyl)-5-(methylsulfonamido)benzo[b]thiophene-2-carboxamide] | 0.023 | 0.025 | 0.012 | 0.1
CS(=O)(=O)Nc1cc2cc(C(=O)Nc3cc(Cl)cc(-c4ccc(F)cc4F)c3)sc2cc1F [Example 322, N-(5-chloro-2′,4′-difluoro-[1,1′-biphenyl]-3-yl)-6-fluoro-5-(methylsulfonamido)benzo[b]thiophene-2-carboxamide] | 0.028 | 0.021 | 0.011 | 0.049
CC(C)Oc1cc(OC(F)(F)F)cc(C(C)(C)c2cc(Cl)cc(NC(=O)c3cc4cc(N(CCN5CCOCC5)S(C)(=O)=O)c(F)cc4s3)c2)c1 [Example 217, N-(3-chloro-5-(2-(3-isopropoxy-5-(trifluoromethoxy)phenyl)propan-2-yl)phenyl)-6-fluoro-5-(N-(2-morpholinoethyl)methylsulfonamido)benzo[b]thiophene-2-carboxamide] | 2.06 | > 1.1 | 0.58 | > 1.1
CS(=O)(=O)Nc1ccc2sc(C(=O)Nc3cc(Br)cc(S(=O)(=O)N4CCc5c(F)cc(F)cc5C4)c3)cc2c1 [Example 419, N-(3-bromo-5-((5,7-difluoro-3,4-dihydroisoquinolin-2(1H)-yl)sulfonyl)phenyl)-5-(methylsulfonamido)benzo[b]thiophene-2-carboxamide] | 0.67 | 1 | 0.65 | 1.8
